Measured values as given in publication PMC7932537, “Quantitative profiling of protease specificity” (PLoS Computational Biology, 2021).

Test system: MMP-2
Assay: Substrate phage display with NGS: relative probability (RP) of P3-P1' tetramer clusters
Assay type: biochemical, human
Details: for avg_RP: MMP2 - no binning; for relative_probability: tetramer clusters unique to the MMP-2 selectome, MMP-2 RP
[1] = tetramer annotation of MMP-2 cleavage sites in all substrates from MEROPS
[2] = average relative probability (RP) of the P3-P1' tetramer, redundant tetramers have been averaged out
[3] = average relative probability of the P3-P1' tetramer, redundant tetramers have been averaged out
[4] = average relative probability of the tetramer, redundant tetramers averaged out
[5] = tetramer annotation of MMP-2 cleavage sites in physiologic substrates from MEROPS

Substance: AAEL
- relative probability (RP) [1]: 15.51

Substance: AAGL
- relative probability (RP) [1]: 29.36

Substance: ADLI
- avg_RP [2]: 0.5875

Substance: AENL
- avg_RP [2]: 6.7504

Substance: AFHI
- avg_RP [2]: 0.4414

Substance: AFHL
- avg_RP [2]: 8.795

Substance: AFNL
- avg_RP [3]: 16.2959

Substance: AFSL
- avg_RP [2]: 10.3321

Substance: AFTM
- avg_RP [2]: 0

Substance: AGAL
- avg_RP [3]: 19.769

Substance: AGHL
- avg_RP [2]: 15.0568

Substance: AGRL
- avg_RP [2]: 3.4801

Substance: AGSL
- relative probability (RP) (acc.to MMP2) (MMP2, RP of matching P3-P1' tetramer, common set of MMP2-9 selectome, RP above KL threshold): 14.97
- relative probability (RP) of matching tetramer (P3-P1' tetramer matching the MS detected MMP2 cleavage sequence, RP_above_4.5): 14.97

Substance: AHAL
- avg_RP [2]: 27.1646

Substance: AHGI
- avg_RP [4]: 8.8809

Substance: AHGL
- avg_RP [4]: 23.6336

Substance: AHHL
- avg_RP [2]: 16.717

Substance: AHLL
- avg_RP [3]: 1.4368

Substance: AHPL
- avg_RP [2]: 24.4555

Substance: AHQL
- avg_RP [3]: 4.1004

Substance: AHSL
- avg_RP [3]: 21.0212

Substance: AIHL
- avg_RP [4]: 13.4941

Substance: AIPL
- avg_RP [4]: 24.8904

Substance: AISM
- avg_RP [3]: 11.4166

Substance: AKHL
- avg_RP [2]: 9.4662

Substance: AKML
- avg_RP [2]: 2.8249

Substance: AKPL
- avg_RP [2]: 20.8275

Substance: ALAL
- avg_RP [3]: 22.1184

Substance: ALAM
- avg_RP [2]: 20.8553

Substance: ALDL
- avg_RP [2]: 2.4602

Substance: ALDM
- avg_RP [2]: 0.2655

Substance: ALGI
- avg_RP [4]: 18.2164

Substance: ALGL
- avg_RP [2]: 26.3282

Substance: ALHL
- avg_RP [3]: 14.6488

Substance: ALNF
- avg_RP [4]: 9.2594

Substance: ALNL
- avg_RP [3]: 17.2813

Substance: ALNM
- avg_RP [2]: 13.7479

Substance: ALPL
- avg_RP [4]: 22.1772

Substance: ALPM
- avg_RP [2]: 15.3537

Substance: ALWL
- avg_RP [2]: 7.2418

Substance: AMGL
- avg_RP [4]: 23.7576

Substance: AMNI
- avg_RP [3]: 4.1669

Substance: AMNL
- avg_RP [3]: 16.2852

Substance: AMRM
- avg_RP [3]: 0.1716

Substance: ANAL
- avg_RP [4]: 20.3526

Substance: ANMI
- avg_RP [2]: 1.6014

Substance: ANNL
- avg_RP [4]: 18.8719

Substance: ANSI
- avg_RP [2]: 0.424

Substance: ANSL
- avg_RP [4]: 10.0738

Substance: ANYI
- avg_RP [2]: 1.6587

Substance: ANYL
- avg_RP [3]: 3.9008

Substance: AQAL
- avg_RP [3]: 22.7358

Substance: AQDL
- avg_RP [3]: 0.5121

Substance: AQEL
- avg_RP [2]: 0.1876

Substance: AQHI
- avg_RP [2]: 7.3783

Substance: AQHL
- avg_RP [2]: 16.6778

Substance: AQMI
- avg_RP [2]: 2.3525

Substance: AQML
- avg_RP [3]: 8.608

Substance: AQNL
- avg_RP [3]: 19.4627

Substance: AQPL
- avg_RP [3]: 14.4283

Substance: AQSL
- avg_RP [3]: 18.365

Substance: AQYL
- avg_RP [3]: 7.443

Substance: ARAM
- avg_RP [4]: 25.2992

Substance: ARAW
- avg_RP [3]: 17.4628

Substance: ARFL
- avg_RP [3]: 8.5771

Substance: ARGL
- avg_RP [4]: 25.9476

Substance: ARKL
- avg_RP [4]: 0

Substance: ARLL
- avg_RP [4]: 1.104

Substance: ARML
- avg_RP [3]: 2.9901

Substance: ARNL
- avg_RP [4]: 24.6947

Substance: ARPL
- avg_RP [4]: 27.8706

Substance: ARQL
- avg_RP [3]: 3.2139

Substance: ARSL
- avg_RP [3]: 17.186

Substance: ARSM
- avg_RP [3]: 12.2991

Substance: ARWL
- avg_RP [3]: 19.0362

Substance: ASAL
- avg_RP [3]: 28.9092

Substance: ASFL
- avg_RP [3]: 10.8605

Substance: ASGL
- avg_RP [3]: 25.6721

Substance: ASHL
- avg_RP [4]: 19.8208

Substance: ASHM
- avg_RP [3]: 12.3873

Substance: ASNL
- avg_RP [3]: 28.7368

Substance: ASRL
- avg_RP [2]: 6.8948

Substance: ATAL
- avg_RP [4]: 22.9481

Substance: AVAI
- avg_RP [4]: 20.993

Substance: AVAL
- avg_RP [3]: 27.4369

Substance: AWAL
- avg_RP [2]: 14.3616

Substance: AWGL
- avg_RP [3]: 17.7408

Substance: AWHL
- avg_RP [2]: 5.5662

Substance: AWMM
- avg_RP [2]: 1.3213

Substance: AWNL
- avg_RP [4]: 14.0049

Substance: AWNM
- avg_RP [2]: 2.0017

Substance: AWSL
- avg_RP [4]: 7.006

Substance: AWYL
- avg_RP [3]: 0.0964

Substance: AYHL
- avg_RP [4]: 15.3364

Substance: AYHM
- avg_RP [3]: 3.7603

Substance: AYNF
- avg_RP [4]: 6.7246

Substance: AYNL
- avg_RP [3]: 20.8713

Substance: AYNM
- avg_RP [3]: 10.8408

Substance: AYSL
- avg_RP [4]: 18.7071

Substance: FAAL
- avg_RP [3]: 18.8584

Substance: FAHL
- avg_RP [4]: 19.6504

Substance: FAPG
- relative probability (RP) [5]: 0.08

Substance: FATL
- avg_RP [2]: 9.1497

Substance: FEHL
- avg_RP [3]: 1.2103

Substance: FGAL
- avg_RP [4]: 25.0961

Substance: FGNL
- avg_RP [3]: 26.0275

Substance: FLHL
- avg_RP [3]: 0.8093

Substance: FLHM
- avg_RP [3]: 0.2069

Substance: FLHW
- avg_RP [3]: 0.0579

Substance: FQSL
- avg_RP [3]: 13.5551

Substance: FQWL
- avg_RP [2]: 13.3419

Substance: FRGL
- avg_RP [3]: 7.4752

Substance: FRHL
- avg_RP [4]: 3.942

Substance: FRML
- avg_RP [3]: 0.2112

Substance: FRNL
- avg_RP [3]: 9.8211

Substance: FRSM
- avg_RP [3]: 5.3885

Substance: FSEL
- avg_RP [3]: 12.1057

Substance: FSHL
- avg_RP [4]: 16.5216

Substance: FSHM
- avg_RP [3]: 11.0227

Substance: FSNL
- avg_RP [3]: 24

Substance: FSQL
- avg_RP [3]: 9.0646

Substance: FSRI
- relative probability (RP) [5]: 0.35

Substance: FWHL
- avg_RP [3]: 0

Substance: GAAL
- avg_RP [3]: 15.7207

Substance: GAHL
- avg_RP [4]: 8.4636

Substance: GAKL
- avg_RP [2]: 0.1271

Substance: GANL
- avg_RP [3]: 13.1428

Substance: GASL
- avg_RP [3]: 9.5377

Substance: GAWL
- avg_RP [2]: 11.7256

Substance: GDRL
- avg_RP [2]: 0

Substance: GFAL
- avg_RP [2]: 0.4341

Substance: GFQL
- avg_RP [3]: 0.0467

Substance: GFSL
- avg_RP [3]: 0.0975

Substance: GHNL
- avg_RP [2]: 0.2721

Substance: GHRL
- avg_RP [2]: 0.0505

Substance: GLAL
- avg_RP [3]: 0.6848

Substance: GLEL
- avg_RP [3]: 0

Substance: GLHL
- avg_RP [2]: 0.1267

Substance: GLNL
- avg_RP [3]: 0.5789

Substance: GLYL
- avg_RP [4]: 0.0762

Substance: GMAL
- avg_RP [2]: 1.3132

Substance: GMNM
- avg_RP [3]: 0

Substance: GMRL
- avg_RP [3]: 0

Substance: GNFL
- avg_RP [2]: 0.2435

Substance: GNRL
- avg_RP [3]: 0.0463

Substance: GNSL
- avg_RP [3]: 0.2884

Substance: GQGL
- avg_RP [2]: 0.1555

Substance: GQHL
- avg_RP [3]: 1.1642

Substance: GRAL
- avg_RP [4]: 7.9443

Substance: GRAM
- avg_RP [4]: 2.5449

Substance: GRHL
- avg_RP [4]: 3.5979

Substance: GRNL
- avg_RP [4]: 8.8117

Substance: GRPL
- avg_RP [2]: 5.2852

Substance: GSGL
- avg_RP [4]: 1.9698

Substance: GSHL
- avg_RP [4]: 4.2785

Substance: GWAL
- avg_RP [3]: 0.0916

Substance: GWDL
- avg_RP [2]: 0

Substance: GWRL
- avg_RP [2]: 0.1031

Substance: GYAL
- avg_RP [4]: 0.5867

Substance: GYHL
- avg_RP [4]: 0.0815

Substance: GYSL
- avg_RP [3]: 0.0471

Substance: HAHL
- avg_RP [4]: 20.0775

Substance: HANL [P3-P1' tetramer cluster]
- relative_probability: 30.86

Substance: HAWM
- avg_RP [4]: 17.1047

Substance: HFHL
- avg_RP [4]: 0.0941

Substance: HLAL
- avg_RP [4]: 11.3603

Substance: HLNI
- avg_RP [2]: 0.0853

Substance: HMAL
- avg_RP [2]: 5.2214

Substance: HMHM
- avg_RP [2]: 0

Substance: HMRL
- avg_RP [3]: 0.0574

Substance: HQNL
- avg_RP [3]: 17.7487

Substance: HQSL
- avg_RP [2]: 10.5998

Substance: HQWL
- avg_RP [2]: 19.2059

Substance: HRSI
- avg_RP [2]: 0.1819

Substance: HRSL
- avg_RP [4]: 7.8508

Substance: HYSL
- avg_RP [3]: 0.1694

Substance: IAAI [P3-P1' tetramer cluster]
- relative_probability: 29.40

Substance: IAAM
- avg_RP [4]: 28.6184

Substance: IAHL
- avg_RP [3]: 32.9345

Substance: IALL
- avg_RP [4]: 16.3586

Substance: IASL
- avg_RP [2]: 32.8949

Substance: IATL
- avg_RP [4]: 24.2778

Substance: IAYL
- avg_RP [3]: 27.9862

Substance: IDLL
- avg_RP [2]: 0.1325

Substance: IESM
- avg_RP [3]: 2.7483

Substance: IEYL
- avg_RP [4]: 5.366

Substance: IFRL
- avg_RP [3]: 0.1412

Substance: IGEI
- avg_RP [4]: 19.2988

Substance: IGNF
- avg_RP [3]: 24.8743

Substance: IGQL [P3-P1' tetramer cluster]
- relative_probability: 30.24

Substance: IHFL
- avg_RP [3]: 4.5373

Substance: ILHL
- avg_RP [2]: 15.3505

Substance: INAL
- avg_RP [4]: 12.2423
